Among the data in patent publication US10111874B2, “Combination therapies for treatment of cancer” (Araxes Pharma LLC, priority 2014, dated 2018) are Binding % values, retold here.

T1 sequence (P01116 1-169 isoform P01116-2 G12C): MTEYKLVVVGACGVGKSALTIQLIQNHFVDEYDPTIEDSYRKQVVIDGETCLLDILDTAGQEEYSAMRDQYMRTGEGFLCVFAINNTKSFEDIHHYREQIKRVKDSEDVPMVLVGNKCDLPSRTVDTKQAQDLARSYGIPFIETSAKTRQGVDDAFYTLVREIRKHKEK

The first assay has as its target T1, KRAS G12C 1-169, his-tagged protein, GDP-loaded (Homo sapiens, UniProt P01116, G12C).
T1 construct: KRAS G12C 1-169, his-tagged protein, GDP-loaded
Briefly: Biochemical assay: covalent binding to KRAS G12C analyzed by mass spectrometry. The settings on record: compounds 1-47, measured at 24 h. The protocol:
Compounds were tested for activity as follows:
Compounds were diluted to 50× final test concentration in DMSO in 96-well storage plates. […] Reactions were mixed carefully and thoroughly by pipetting up/down with a 200 μl multi-channel pipettor. […] 5 μl of 2% formic acid (Fisher cat#A117) in DI H2O was then added to each well followed by mixing with a pipette. The plate was then resealed with aluminum seal and stored on dry ice until analyzed as described below.
The above described assays were analyzed by mass spectrometry according to the following procedure:
The MS instrument is set to positive polarity, 2 GHz resolution, and low mass (1700) mode and allowed to equilibrate for 30 minutes. The instrument is then calibrated, switched to acquisition mode and the appropriate method loaded.
After another 30 minute equilibration time, a blank batch (i.e., buffer) is run to ensure equipment is operating properly. The samples are thawed at 37° C. for 10 minutes, briefly centrifuged, and transfer to the bench top. Wells A1 and H12 are spiked with 1 μL 500 μM internal standard peptide, and the plates centrifuged at 2000×g for 5 minutes. The method is then run and masses of each individual well recorded.
The masses (for which integration data is desired) for each well are pasted into the platemap and exported from the analysis. Masses for the internal standards are exported as well. The data at 50 ppm is extracted for the +19 charge state, and identity of well A1 is assigned using the internal standard spike and integrated. Peak data is exported as a TOF list and the above steps are repeated individually, for the +20, 21, 22, 23, 24, and 25 charge states.
As for `C=CC(=O)N1CCN(c2ncnc3cc(Cl)c(-c4ccccc4Cl)cc23)CC1` [Compound I-1, 1-(4-(7-chloro-6-(2-chlorophenyl)quinazolin-4-yl)piperazin-1-yl)prop-2-en-1-one], the Binding % entry was “+++ (+++indicates binding activity greater than 50% and up to 75%)”. As to `C=CC(=O)N1CCC(Nc2ncnc3cc(Cl)c(-c4ccccc4Cl)cc23)CC1` [Compound I-2, 1-(4-(7-chloro-6-(2-chlorophenyl)quinazolin-4-ylamino)piperidin-1-yl)prop-2-en-1-one], the Binding % result is “+ (+indicates binding activity from 5% to 25%)”. Consider `C=CC(=O)N1CCN(c2n[nH]c3cc(Cl)c(-c4ccccc4Cl)cc23)CC1` [Compound I-3, 1-(4-(6-chloro-5-(2-chlorophenyl)-1H-indazol-3-yl)piperazin-1-yl)prop-2-en-1-one], for which the Binding % result is reported as “+ (+indicates binding activity from 5% to 25%)”.

Take `C=CC(=O)N1CCN(c2ncnc3cc(Cl)c(-c4ccc(Cl)cc4)cc23)CC1` [Compound I-4, 1-(4-(7-chloro-6-(4-chlorophenyl)quinazolin-4-yl)piperazin-1-yl)prop-2-en-1-one]: the Binding % entry is “++++ (++++indicates binding activity greater than 75%)”.

Staying with this assay, now noted: compounds 247-342, measured at 30 min.
Regarding `C=CC(=O)N1CCN(c2nc(Nc3cnn(C)c3)nc3c(F)c(-c4c(C)ccc5[nH]ncc45)c(Cl)cc23)CC1` [Compound 322, 1-(4-(6-chloro-8-fluoro-7-(5-methyl-1H-indazol-4-yl)-2-(1-methyl-1H-pyrazol-4-ylamino)quinazolin-4-yl)piperazin-1-yl)prop-2-en-1-one], the Binding % result was “+++ (+++indicates binding activity greater than 50% and up to 75%)”. The same measure, in the same setting: the result for `C=CC(=O)N1CCN(c2nc(OCCN(C)C)nc3c(F)c(-c4c(C)ccc5[nH]ncc45)c(Cl)cc23)CC1` [Compound 323, 1-(4-(6-chloro-2-(2-(dimethylamino)ethoxy)-8-fluoro-7-(5-methyl-1H-indazol-4-yl)quinazolin-4-yl)piperazin-1-yl)prop-2-en-1-one] reads “+++ (+++indicates binding activity greater than 50% and up to 75%)”. `C=CC(=O)N1CCN(c2ncnc3c(F)c(-c4cccc5c(C)n[nH]c45)c(Cl)cc23)CC1` [Compound 324, 1-(4-(6-chloro-8-fluoro-7-(3-methyl-1H-indazol-7-yl)quinazolin-4-yl)piperazin-1-yl)prop-2-en-1-one]: the Binding % result is “+ (+indicates binding activity from 5% to 25%)”. For `CN(C)C/C=C/C(=O)N1CCN(c2ncnc3c(F)c(-c4cc(O)cc5ccccc45)c(Cl)cc23)CC1` [Compound 325, (E)-1-(4-(6-chloro-8-fluoro-7-(3-hydroxynaphthalen-1-yl)quinazolin-4-yl)piperazin-1-yl)-4-(dimethylamino)but-2-en-1-one], the Binding % entry was “++ (++indicates binding activity greater than 25% and up to 50%)”. Consider `C=CC(=O)N1CCN(c2nc(=O)[nH]c3cc(-c4c(C)ccc5[nH]ncc45)c(Cl)cc23)CC1` [Compound 326, 4-(4-acryloylpiperazin-1-yl)-6-chloro-7-(5-methyl-1H-indazol-4-yl)quinazolin-2(1H)-one], for which the Binding % result is reported as “+ (+indicates binding activity from 5% to 25%)”. On to `C=CC(=O)N1CCN(c2ncnc3c(F)c(-c4c(C)ccc5[nH]ncc45)c(Cl)cc23)CC1C` (stereo not shown) [Compound 327, 1-(4-(6-chloro-8-fluoro-7-(5-methyl-1H-indazol-4-yl)quinazolin-4-yl)-2-methylpiperazin-1-yl)prop-2-en-1-one], for which the Binding % result was “++ (++indicates binding activity greater than 25% and up to 50%)”. On the same count and under the same terms, with `C/C=C/C(=O)N1CCN(c2ncnc3c(F)c(-c4cc(O)cc5ccccc45)c(Cl)cc23)CC1C` (stereo not shown) [Compound 328, (E)-1-(4-(6-chloro-8-fluoro-7-(3-hydroxynaphthalen-1-yl)quinazolin-4-yl)-2-methylpiperazin-1-yl)but-2-en-1-one] the entry was “+ (+indicates binding activity from 5% to 25%)”. On to `C=CC(=O)N1CCN(c2nc(OCCCN(C)C)nc3cc(-c4c(C)ccc5[nH]ncc45)c(Cl)cc23)CC1` [Compound 329, 1-(4-(6-chloro-2-(3-(dimethylamino)propoxy)-7-(5-methyl-1H-indazol-4-yl)quinazolin-4-yl)piperazin-1-yl)prop-2-en-1-one], for which the Binding % entry is “++ (++indicates binding activity greater than 25% and up to 50%)”. For `C=CC(=O)N1CCN(c2nc(NC3CCOC3)nc3cc(-c4c(C)ccc5[nH]ncc45)c(Cl)cc23)CC1` (stereo not shown) [Compound 330, 1-(4-(6-chloro-7-(5-methyl-1H-indazol-4-yl)-2-(tetrahydrofuran-3-ylamino)quinazolin-4-yl)piperazin-1-yl)prop-2-en-1-one], the Binding % result is “++ (++indicates binding activity greater than 25% and up to 50%)”. Same read-out and setting: with `C=CC(=O)N1CCN(c2ncnc3c(F)c(-c4c(F)ccc5[nH]ncc45)c(Cl)cc23)CC1` [Compound 331, 1-(4-(6-chloro-8-fluoro-7-(5-fluoro-1H-indazol-4-yl)quinazolin-4-yl)piperazin-1-yl)prop-2-en-1-one] the entry was “++ (++indicates binding activity greater than 25% and up to 50%)”. Regarding `C=CC(=O)N1CCN(c2nc(-c3cncs3)nc3c(F)c(-c4c(C)ccc5[nH]ncc45)c(Cl)cc23)CC1` [Compound 332, 1-(4-(6-chloro-8-fluoro-7-(5-methyl-1H-indazol-4-yl)-2-(thiazol-5-yl)quinazolin-4-yl)piperazin-1-yl)prop-2-en-1-one], the Binding % entry is “++ (++indicates binding activity greater than 25% and up to 50%)”. Consider `Cc1ccc2[nH]ncc2c1-c1c(Cl)cc2c(N3CCN(C(=O)/C=C/CN(C)C)CC3)nc(-c3cncs3)nc2c1F` [Compound 333, (E)-1-(4-(6-chloro-8-fluoro-7-(5-methyl-1H-indazol-4-yl)-2-(thiazol-5-yl)quinazolin-4-yl)piperazin-1-yl)-4-(dimethylamino)but-2-en-1-one], for which the Binding % entry is recorded as “+ (+indicates binding activity from 5% to 25%)”. For the molecule `C=CC(=O)N1CCN(c2ncnc3c(F)c(-c4c(C)ccc5[nH]ncc45)c(Cl)cc23)CC1` [Compound 334, 1-(4-(6-chloro-8-fluoro-7-(5-methyl-1H-indazol-4-yl)quinazolin-4-yl)piperazin-1-yl)prop-2-en-1-one], the Binding % result is given as “++++ (++++indicates binding activity greater than 75%)”. For the molecule `NC/C=C/C(=O)N1CCN(c2ncnc3c(F)c(-c4cc(O)cc5ccccc45)c(Cl)cc23)CC1` [Compound 335, (E)-4-amino-1-(4-(6-chloro-8-fluoro-7-(3-hydroxynaphthalen-1-yl)quinazolin-4-yl)piperazin-1-yl)but-2-en-1-one], the Binding % entry is “++++ (++++indicates binding activity greater than 75%)”. Turning to `C=CC(=O)N1CCN(c2c(C#N)cnc3c(F)c(-c4c(C)ccc5[nH]ncc45)c(Cl)cc23)CC1C` (stereo not shown) [Compound 336, 4-(4-acryloyl-3-methylpiperazin-1-yl)-6-chloro-8-fluoro-7-(5-methyl-1H-indazol-4-yl)quinoline-3-carbonitrile], the Binding % result was “+++ (+++indicates binding activity greater than 50% and up to 75%)”.

For the molecule `C=CC(=O)N1CCN(c2ncnc3c(F)c(-c4cc(C(F)F)cc5ccccc45)c(Cl)cc23)CC1` [Compound 337], the Binding % result is reported as “+ (+indicates binding activity from 5% to 25%)”. Regarding `C=CC(=O)N1CCN(c2nc(N(C)C)nc3c(F)c(-c4c(C)ccc5[nH]ncc45)c(Cl)cc23)CC1` [Compound 338, 1-(4-(6-chloro-2-(dimethylamino)-8-fluoro-7-(5-methyl-1H-indazol-4-yl)quinazolin-4-yl)piperazin-1-yl)prop-2-en-1-one], the Binding % entry was “++ (++indicates binding activity greater than 25% and up to 50%)”. Still for that read-out and setting: with `C=CC(=O)N1CCN(c2nc(OCCCN(C)C)nc3c(F)c(-c4c(C)ccc5[nH]ncc45)c(Cl)cc23)CC1` [Compound 339, 1-(4-(6-chloro-2-(3-(dimethylamino)propoxy)-8-fluoro-7-(5-methyl-1H-indazol-4-yl)quinazolin-4-yl)piperazin-1-yl)prop-2-en-1-one] the entry was “++++ (++++indicates binding activity greater than 75%)”; with `C=CC(=O)N1CCN(c2ncnc3c(F)c(-c4c(C)ccc5[nH]nc(F)c45)c(Cl)cc23)CC1` [Compound 340, 1-(4-(6-chloro-8-fluoro-7-(3-fluoro-5-methyl-1H-indazol-4-yl)quinazolin-4-yl)piperazin-1-yl)prop-2-en-1-one], “++++ (++++indicates binding activity greater than 75%)”.

As for `C=CC(=O)N1CCN(c2nc(OCCN(C)C)nc3c(F)c(-c4c(O)cccc4F)c(Cl)cc23)CC1` [Compound 341, 1-(4-(6-chloro-2-(2-(dimethylamino)ethoxy)-8-fluoro-7-(2-fluoro-6-hydroxyphenyl)quinazolin-4-yl)piperazin-1-yl)prop-2-en-1-one], the Binding % result is reported as “++++ (++++indicates binding activity greater than 75%)”. Turning to `C=CC(=O)N1CCN(c2nc(OCCN3CCOCC3)nc3c(F)c(-c4c(C)ccc5[nH]ncc45)c(Cl)cc23)CC1` [Compound 342, 1-(4-(6-chloro-8-fluoro-7-(5-methyl-1H-indazol-4-yl)-2-(2-morpholinoethoxy)quinazolin-4-yl)piperazin-1-yl)prop-2-en-1-one], the Binding % result was “++++ (++++indicates binding activity greater than 75%)”.
